Entries after “also recorded” stand apart in the source; their conditions may differ.
What was measured:
Hb = molecular target: T1, Hb (Homo sapiens, UniProt P68871+P69905); assay: Appendix B additive screen, % Hb Recovery
T1 construct: To assess the stability of hemoglobin in stool samples, samples were exposed to simulated shipping stress conditions; from tissue; host or cells: stool samples

[1] = molecular target: T2, hemoglobin in stool samples (Homo sapiens, UniProt P68871+P69905); assay: 3-Day shipping simulation, hemoglobin % recovery by ELISA; design: from tissue; host or cells: stool samples;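 further: stool samples put through shipping stress in a thermal cycler, hemoglobin quantified by ELISA before and after, stability given as post-stress % of the pre-stress level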
[2] = molecular target: T2, hemoglobin in stool samples; assay: Accelerated shipping simulation (35C 16 hour challenge), hemoglobin % recovery by ELISA; design: from tissue; host or cells: stool samples;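 further: stool hemoglobin measured by ELISA before and after thermal-cycler shipping stress, stability given as percent of pre-stress hemoglobin recovered afterwards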
[3] = molecular target: T2, hemoglobin in stool samples; assay: 7-Day shipping simulation, hemoglobin % recovery by ELISA; design: from tissue; host or cells: stool samples
Experimental: (§1) To assess the stability of hemoglobin in stool samples, samples were exposed to simulated shipping stress conditions using a thermal cycler. […] An ELISA based detection method is used to determine the hemoglobin concentrations of samples before and after exposure to the shipping simulation. Hemoglobin stability is calculated as a % recovery of hemoglobin after the samples have been exposed to the shipping simulation.
To assess the stability of hemoglobin in stool samples beyond 3 days, a 7-Day shipping simulation was created.

[4] = molecular target: T2, hemoglobin in stool samples; assay: 3-Day extreme temperature shipping simulation, hemoglobin % recovery by ELISA; design: from tissue; host or cells: stool samples
Experimental: as §1
As an additional challenge, a shipping simulation meant to represent a “worst case” scenario was created using extreme temperatures.

hemoglobin (Hb) = molecular target: T3, hemoglobin (Hb) (Homo sapiens, UniProt P68871+P69905); assay: Appendix B: additives in Hb Collection Buffer, % Hb Recovery
T3 construct: To assess the stability of hemoglobin in stool samples, samples were exposed to simulated shipping stress conditions; from tissue; host or cells: stool samples

[5] = additive concentrations as in the 8th table
[6] = additive concentrations as in the 9th table
[7] = additive concentrations as in the 10th table
[8] = concentrations and buffer pH 6.5 or 7.4 as in the 13th table
[9] = concentrations and buffer pH 6.5 or 7.4 as in the 14th table
[10] = concentrations and buffer pH 6.5 or 7.4 as in the 15th table

T3 sequence (P69905 2-142 limits assumed): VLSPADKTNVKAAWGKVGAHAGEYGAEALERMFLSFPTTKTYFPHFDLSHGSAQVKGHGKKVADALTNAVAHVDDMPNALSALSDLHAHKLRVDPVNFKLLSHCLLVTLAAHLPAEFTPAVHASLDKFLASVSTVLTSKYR
T3 sequence (P68871 2-147 limits assumed): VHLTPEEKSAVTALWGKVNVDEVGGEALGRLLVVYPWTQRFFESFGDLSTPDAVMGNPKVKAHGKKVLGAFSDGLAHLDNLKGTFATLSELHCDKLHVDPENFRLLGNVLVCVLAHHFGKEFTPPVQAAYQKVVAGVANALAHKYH
T2 sequence (P69905 2-142 limits assumed): as the sequence (P69905 2-142 limits assumed) above
T2 sequence (P68871 2-147 limits assumed): as the sequence (P68871 2-147 limits assumed) above
T1 sequence (P69905 2-142 limits assumed): as the sequence (P69905 2-142 limits assumed) above
T1 sequence (P68871 2-147 limits assumed): as the sequence (P68871 2-147 limits assumed) above

Magnesium Gluconate was tested, and the Results (Hb) was “No Improvement”, the Results ([1]; additive concentration 5 mM) was “Magnesium Cation shows” and the Results ([1]; additive concentration 10 mM) was “Magnesium Cation shows”. The Results ([1]; additive concentration 20 mM) was “Magnesium Cation shows”, the Results ([1]; additive concentration 30 mM) was “Magnesium Cation shows” and the Results ([1]; additive concentration 40 mM) was “Magnesium Cation shows”. For the same compound, the Results ([1]; additive concentration 50 mM) was “Magnesium Cation shows”, the Results ([2]; additive concentration 1.2 uM) was “No Improvement” and the Results ([2]; additive concentration 12 uM) was “No Improvement”. The Results ([2]; additive concentration 120 uM) was “No Improvement”.

`C[N+](C)(C)CC(=O)O` [Betaine] was tested, and the Results (Hb) was “Betaine shows improvement”, the Results ([1]; Additive Concentration 1M) was “Betaine shows improvement” and the Results ([1]; additive concentration 0.05M) was “Betaine shows improvement”. The Results ([1]; additive concentration 0.5M) was “Betaine shows improvement”, the Results ([1]; additive concentration 1.25M) was “Betaine shows improvement” and the Results ([1]; additive concentration 3M) was “Betaine shows improvement”. The Results ([1]; additive concentration 3.5M) was “Betaine shows improvement”, the Results ([1]; additive concentration 3.75M) was “Betaine shows improvement” and the Results ([1]; additive concentration 4M) was “Betaine shows improvement”. The Results ([1]; additive concentration 5M) was “Betaine shows improvement”, the Results ([1]; additive concentration […]) was “Betaine shows improvement” and the “Notes (Hb stability vs Hb Collection Buffer)” value [1, 5] was “Improved Hb”. The Results ([2]; additive concentration 50 uM) was “No Improvement”, the Results ([2]; additive concentration 500 uM) was “No Improvement” and the Results ([2]; additive concentration 50 mM) was “No Improvement”. The Results ([2]; additive concentration 96 mM) was “No Improvement”, the Results ([2]; additive concentration 3.5M) was “Improvement” and the “Notes (Hb stability vs Hb Collection Buffer)” value [3, 6] was “Improved Hb”. The “Notes (Hb stability vs Hb Collection Buffer)” value [4, 7] was “Improved Hb”.

In the case of `C=CC1=C(C)c2cc3[n-]c(cc4[n-]c(cc5nc(cc1n2)C(C)=C5C=C)c(C)c4CCC(=O)O)c(CCC(=O)O)c3C.[Cl-].[Fe+3]` [Hemin], the “Notes (Hb stability vs Hb Collection Buffer)” value [1, 8] is reported as “Improved”, the Results ([2]; additive concentration 0.0003%, pH 6.5) is reported as “Improvement” and the Results ([2]; additive concentration 0.0003%; pH 6.4) is reported as “Improvement in % Hb”. The Results ([2]; additive concentration 0.0003%; pH 6.5) was “Improvement in % Hb”, the Results ([2]; additive concentration 0.0003%; pH 6.6) was “Improvement in % Hb” and the Results ([2]; additive concentration 0.0003%; pH 6.7) was “Improvement in % Hb”. The Results ([2]; additive concentration 0.0003%; pH 6.8) was “Improvement in % Hb”, the Results ([2]; additive concentration 0.0003%; pH 6.9) was “Improvement in % Hb” and the Results ([2]; additive concentration 0.0003%; pH 7.0) was “Improvement in % Hb”. The Results ([2]; additive concentration 0.0003%; pH 7.1) was “Improvement in % Hb”, the Results ([2]; additive concentration 0.0003%; pH 7.2) was “Improvement in % Hb” and the Results ([2]; additive concentration 0.0003%; pH 7.3) was “Improvement in % Hb”. The Results ([2]; additive concentration 0.0003%; pH 7.4) was “Improvement in % Hb”, the Results ([2]; additive concentration 0.0003%; pH 7.5) was “Improvement in % Hb” and the “Notes (Hb stability vs Hb Collection Buffer)” value [3, 9] was “Improved”. For the same compound, the “Notes (Hb stability vs Hb Collection Buffer)” value [4, 10] was “Improved”.

In the case of `C[N+](C)(C)[O-]` [Trimethylamine N-oxide (TMANO)], the Results (Hb) is reported as “No Improvement”, the Results ([1]; additive concentration 1.1M) is reported as “Slight Improvement” and the Results ([1]; additive concentration 2.15M) is reported as “Slight Improvement”. The Results ([1]; additive concentration 3M) was “No Improvement”, the Results ([1]; additive concentration 3.5M) was “No Improvement” and the Results ([1]; additive concentration 4M) was “No Improvement”. The Results ([2]; additive concentration 500 uM) was “No Improvement”, the Results ([2]; additive concentration 5 mM) was “No Improvement” and the Results ([2]; additive concentration 50 mM) was “No Improvement”. The Results ([2]; additive concentration 87 mM) was “No Improvement”.

In the case of `O=S(=O)([O-])[O-].[Mg+2]` [Magnesium Sulfate], the Results (hemoglobin (Hb); Additive Concentration 10 mM) is reported as “Improvement in % Hb”, the Results ([1]; Additive Concentration 10 mM) is reported as “Magnesium Cation shows” and the Results ([1]; additive concentration 0.001M) is reported as “Magnesium Cation shows”. The Results ([1]; additive concentration 5 mM) was “Magnesium Cation shows”, the Results ([1]; additive concentration 0.01M) was “Magnesium Cation shows” and the Results ([1]; additive concentration 10 mM) was “Magnesium Cation shows”. For the same compound, the Results ([1]; additive concentration 20 mM) was “Magnesium Cation shows”, the Results ([1]; additive concentration 30 mM) was “Magnesium Cation shows” and the Results ([1]; additive concentration 40 mM) was “Magnesium Cation shows”. The Results ([1]; additive concentration 0.05M) was “Magnesium Cation shows”, the Results ([1]; additive concentration 50 mM) was “Magnesium Cation shows” and the “Notes (Hb stability vs Hb Collection Buffer)” value [1, 5] was “Improved Hb”. The Results ([2]; additive concentration 10 mM) was “Improvement”, the “Notes (Hb stability vs Hb Collection Buffer)” value [3, 6] was “Improved Hb” and the “Notes (Hb stability vs Hb Collection Buffer)” value [4, 7] was “Improved Hb”.

For `O=C([O-])O.[Na+]` [Sodium Bicarbonate], the Results (Hb) was “No Improvement”, the Results ([2]; additive concentration 0.0000895 mM) was “No Improvement” and the Results ([2]; additive concentration 0.000895 mM) was “No Improvement”. The Results ([2]; additive concentration 0.00895 mM) was “No Improvement”, the Results ([2]; additive concentration 0.0895 mM) was “No Improvement” and the Results ([2]; additive concentration 0.895 mM) was “No Improvement”. For the same compound, the Results ([2]; additive concentration 8.95 mM) was “No Improvement”.

With `[Cl-].[Cl-].[Mg+2]` [Magnesium Chloride] the Results (Hb) was “Magnesium Cation shows”, the Results ([1]; additive concentration 5 mM) was “Magnesium Cation shows” and the Results ([1]; additive concentration 10 mM) was “Magnesium Cation shows”. The Results ([1]; additive concentration 20 mM) was “Magnesium Cation shows”, the Results ([1]; additive concentration 30 mM) was “Magnesium Cation shows” and the Results ([1]; additive concentration 40 mM) was “Magnesium Cation shows”. For the same compound, the Results ([1]; additive concentration 50 mM) was “Magnesium Cation shows”.

In the case of `[Ca+2].[Cl-].[Cl-]` [Calcium Chloride], the Results (Hb) is reported as “Calcium cation shows”, the Results (hemoglobin (Hb); Additive Concentration 10 mM) is reported as “No improvement; also recorded: Improvement in % Hb” and the Results ([1]; Additive Concentration 10 mM) is reported as “Calcium cation shows”. The Results ([1]; additive concentration 5 mM) was “Calcium cation shows”, the Results ([1]; additive concentration 10 mM) was “Calcium cation shows” and the Results ([1]; additive concentration 20 mM) was “Calcium cation shows”. For the same compound, the Results ([1]; additive concentration 30 mM) was “Calcium cation shows”, the Results ([1]; additive concentration 40 mM) was “Calcium cation shows” and the Results ([1]; additive concentration 50 mM) was “Calcium cation shows”. The “Notes (Hb stability vs Hb Collection Buffer)” value [1, 5] was “Improved Hb”, the Results [2] was “Calcium cation shows; also recorded: Improvement” and the “Notes (Hb stability vs Hb Collection Buffer)” value [3, 6] was “Improved Hb”. For the same compound, the “Notes (Hb stability vs Hb Collection Buffer)” value [4, 7] was “Improved Hb”.

`C=CC1=C(C)c2cc3[n-]c(cc4nc(cc5[n-]c(cc1n2)c(C)c5C=C)C(C)=C4CCC(=O)O)c(CCC(=O)O)c3C.[Zn+2]` [Protoporphyrin IX Zn, Protoporphyrin IX Zinc] was tested, and the Results (hemoglobin (Hb); Additive Concentration 0.001 uM) was “No Improvement”, the Results (hemoglobin (Hb); Additive Concentration 0.01 uM) was “Improvement in % Hb” and the Results (hemoglobin (Hb); Additive Concentration 0.1 uM) was “Improvement in % Hb”. The Results (hemoglobin (Hb); Additive Concentration 1 uM) was “Improvement in % Hb”, the Results (hemoglobin (Hb); additive concentration 10 uM) was “Improvement in % Hb” and the Results (hemoglobin (Hb); additive concentration 100 uM) was “Improvement in % Hb”. For the same compound, the “Notes (Hb stability vs Hb Collection Buffer)” value [1, 8] was “Improved”, the Results ([2]; additive concentration 1 uM, pH 6.5) was “Improvement” and the Results ([2]; additive concentration 1 uM, pH 7.4) was “Improvement”. For the same compound, the “Notes (Hb stability vs Hb Collection Buffer)” value [3, 9] was “Improved” and the “Notes (Hb stability vs Hb Collection Buffer)” value [4, 10] was “Improved”.

`[Cl-].[K+]` [Potassium Chloride] was tested, and the Results (Hb) was “No Improvement”.

For `Cl.N` [Ammonium Chloride], the Results (Hb) was “No Improvement”.

In the case of `O=[N+]([O-])C1(Br)COCOC1` [5-bromo-5-nitro-1,3-dioxane], the Results (Hb) is reported as “No Improvement”.

In the case of `[Ca+2].[Cl-].[Cl-]` [Calcium Chloride (anhydrous)], the Results (Hb) is reported as “Calcium cation shows”.

`CC(=O)O.N` [Ammonium Acetate] was tested, and the Results (Hb) was “No Improvement”.

With `CC(=O)[O-].[K+]` [Potassium Acetate] the Results (Hb) was “No Improvement”.

With `O=C([O-])c1ccccc1.[Na+]` [Sodium Benzoate] the Results (Hb) was “No Improvement”, the Results ([1]; Additive Concentration 0.03%) was “No improvement” and the Results ([1]; Additive Concentration 0.04%) was “No improvement”. For the same compound, the Results ([1]; Additive Concentration 0.05%) was “No improvement”, the Results ([1]; Additive Concentration 0.06%) was “No improvement” and the Results ([1]; Additive Concentration 0.10%) was “No improvement”. The Results ([1]; Additive Concentration 0.50%) was “No improvement” and the Results ([1]; Additive Concentration 1%) was “No improvement”.

From patent US20240402196A1 (Exact Sciences Corporation, priority 2018, published 2024)
